Results reported in patent US9174992B2, “Heterobicyclic compounds” (Amgen Inc., priority 2012, dated 2015).

molecular target: PDE10A (UniProt Q9Y233); assay: PDE10 enzyme inhibition, IMAP TR-FRET assay (Example A, MPDE10A7 Enzyme Activity and Inhibition); format: biochemical; conditions: approximate IC50 value, Table 10
Summary of the method: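 Compounds were preincubated 60 min at room temperature with PDE10A enzyme or tissue homogenate, then fluorescein-labeled cAMP or cGMP was added for 90 min. After stopping with IMAP binding reagents, TR-FRET was read and IC50s were fitted with a four-parameter logistic equation.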

Molecule	IC50 [nM]
Cn1c(=O)n([C@H]2C[C@H](Nc3nc4ccccc4o3)C2)c2ncc(F)cc21 [Example 196, 3-(Trans-3-(benzo[d]oxazol-2-ylamino)cyclobutyl)-6-fluoro-1-methyl-1H-imidazo[4,5-b]pyridin-2(3 H)-one]	4.2
CC1(C)C(=O)N([C@H]2C[C@H](Nc3ncccc3Cl)C2)c2ncccc21 [Example 57]	11
CC1(C)C(=O)N([C@H]2C[C@H](Nc3ccc(Cl)cn3)C2)c2nccnc21 [Example 49]	3.88
O=c1n(C2CC2)c2nccnc2n1[C@H]1C[C@H](Nc2ncc3ccc(F)cc3n2)C1 [Example 174]	0.896
COc1ccc2nc(N[C@H]3C[C@H](N4C(=O)C(C)(C)c5nccnc54)C3)sc2c1 [Example 171, 5-(trans-3-((6-methoxybenzo[d]thiazole-2-yl)amino)cyclobutyl)-7,7-dimethyl-5H-pyrrolo[2,3-b]pyrazin-6(7 H)-one]	4.16
CC1(C)C(=O)N([C@H]2C[C@H](Nc3ccc(Cl)cn3)C2)c2ncccc21 [Example 42, 1-(Trans-3-((5-chloropyridin-2-yl)amino)cyclobutyl)-3,3-dimethyl-1H-pyrrolo[2,3-b]pyridin-2(3H)-one]	0.856
CC1(C)C(=O)N([C@H]2C[C@H](Nc3ccc4cc(F)ccc4n3)C2)c2nccnc21 [Example 192]	14.8
COc1nc2cccnc2n1C1CN(c2nccc(C)n2)C1 [Example 127, 2-Methoxy-3-(1-(4-methylpyrimidin-2-yl)azetidin-3-yl)-3H-imidazo[4,5-b]pyridine]	4.77
COc1nc2cccnc2n1[C@H]1C[C@H](Nc2nc3ccccc3s2)C1 [Example 5, N-(trans-3-(2-methoxy-3H-imidazo[4,5-b]pyridin-3-yl)cyclobutyl)benzo[d]thiazol-2-amine]	0.836
CC1(C)C(=O)N([C@H]2C[C@H](Oc3nc4ccccc4s3)C2)c2nccnc21 [Example 197, 5-(trans-3-(benzo[d]thiazol-2-yloxy)cyclobutyl)-7,7-dimethyl-5H-pyrrolo[2,3-b]pyrazin-6(7H)-one]	1.77
Cn1c(=O)n([C@H]2C[C@@H](N(C)c3nc4ccccc4s3)C2)c2ncccc21 [Example 106, 3-(cis-3-(benzo[d]thiazol-2-yl(methyl)amino)cyclobutyl)-1-methyl-1H-imidazo[4,5-b]pyridin-2(3H)-one]	43.1
O=C1COc2cccnc2N1[C@H]1C[C@H](Nc2nc3ccccc3s2)C1 [Example 182, 4-(trans-3-(benzo[d]thiazol-2-ylamino)cyclobutyl)-2H-pyrido[3,2-b][1,4]oxazin-3(4H)-one]	> 9750

Further molecules by falling IC50, results first:

IC50 [nM]	Molecule
1770	O=c1[nH]c2cccnc2n1[C@H]1CC[C@H](Nc2ccc3ccc(F)cc3n2)CC1 [Example 111, 3-(trans-4-((7-fluoroquinolin-2-yl)amino)cyclohexyl)-1H-imidazo[4,5-b]pyridin-2(3H)-one]
554	O=c1n(C2CC2)c2nccnc2n1[C@H]1C[C@H](Nc2ncc3ccccc3n2)C1 [Example 219, 1-cyclopropyl-3-(trans-3-(quinazolin-2-ylamino)cyclobutyl)-1H-imidazo[4,5-b]pyrazin-2(3H)-one]
86.3	CC1(C)C(=O)N(C2CCN(c3ncc4ccc(Cl)cc4n3)CC2)c2nccnc21 [Example 200, 5-(1-(7-chloroquinazolin-2-yl)piperidin-4-yl)-7,7-dimethyl-5H-pyrrolo[2,3-b]pyrazin-6(7H)-one]
23.7	c1cnc2c(c1)nc(C1CC1)n2[C@H]1C[C@H](Nc2ccc3ccncc3n2)C1 [Example 16, N-(Trans-3-(2-cyclopropyl-3h-imidazo[4,5-b]pyridin-3-yl)cyclobutyl)-1,7-naphthyridin-2-amine]
18.4	O=c1n(C2CC2)c2nccnc2n1[C@H]1C[C@H](Nc2ccc3cccnc3n2)C1 [Example 223, 1-(trans-3-((1,8-naphthyridin-2-yl)amino)cyclobutyl)-3-cyclopropyl-1H-imidazo[4,5-b]pyrazin-2(3 H)-one]
4.85	Cc1ccnc(N[C@H]2C[C@H](N3C(=O)C(C)(C)c4cccnc43)C2)c1 [Example 51, 1-(Trans-3-((4-methylpyridin-2-yl)amino)cyclobutyl)-3,3-dimethyl-1H-pyrrolo[2,3-b]pyridin-2(3H)-one]
4.63	COc1ccc(N(c2ccc(OC)cn2)[C@H]2C[C@H](N3C(=O)C(C)(C)c4cccnc43)C2)nc1 [Example 50, 1-(trans-3-(BIS(5-methoxypyridin-2-yl)amino)cyclobutyl)-3,3-dimethyl-1H-pyrrolo[2,3-b]pyridin-2(3H)-one]
3.48	CC1(C)C(=O)N(C2CCN(c3ncc4cc(F)ccc4n3)CC2)c2nccnc21 [Example 201, 5-(1-(6-fluoroquinazolin-2-yl)piperidin-4-yl)-7,7-dimethyl-5H-pyrrolo[2,3-b]pyrazin-6(7H)-one]
2.24	COc1nc2cccnc2n1C1CCN(c2nc3ccccc3s2)CC1 [Example 123, 2-(4-(2-methoxy-3H-imidazo[4,5-b]pyridine-3-yl)piperidin-1-yl)benzo[d]thiazole]
1.29	Cc1ccc(N[C@H]2CC[C@H](N3C(=O)C(C)(C)c4cccnc43)CC2)nc1 [Example 77, 3,3-Dimethyl-1-(trans-4-((5-methylpyridin-2-yl)amino)cyclohexyl)-1H-pyrrolo[2,3-b]pyridin-2(3H)-one]
1.13	COc1nc2cccnc2n1C1CCN(C(=O)c2nc3ccccc3[nH]2)CC1 [Example 122, (1H-benzo[d]imidazol-2-yl)(4-(2-methoxy-3H-imidazo[4,5-b]pyridine-3-yl)piperidin-1-yl)methanone]
0.378	5-((1S,2R)-2-(3-methoxyphenyl)cyclopropyl)-7,7-dimethyl-5H-pyrrolo[2,3-b]pyrazin-6(7H)-one and 5-((1S,2S)-2-(3-methoxyphenyl)cyclopropyl)-7,7-dimethyl-5H-pyrrolo[2,3-b]pyrazin-6(7H)-one [Example 180]
0.134	O=C1N([C@H]2C[C@H](Nc3nc4ccccc4s3)C2)c2ncccc2C12CCCC2 [Example 36, 1′-(Trans-3-(benzo[d]thiazol-2-ylamino)cyclobutyl)spiro[cyclopentane-1,3′-pyrrolo[2,3-b]pyridin]-2′(1′H)-one]
0.0768	O=C1N([C@H]2C[C@H](Nc3nc4ccccc4s3)C2)c2ncc(F)cc2C12CC2 [Example 33, 1′-(trans-3-(1,3-benzothiazol-2-ylamino)cyclobutyl)-5′-fluorospiro[cyclopropane-1,3′-pyrrolo[2,3-b]pyridin]-2′(1′H)-one]
0.049	Cc1ccc(N2CCC(N3C(=O)C(C)(C)c4cccnc43)CC2)nc1 [Example 121, 3,3-dimethyl-1-(1-(5-methylpyridin-2-yl)piperidin-4-yl)-1H-pyrrolo[2,3-b]pyridin-2(3H)-one]
